System: Rattus norvegicus
Experiment: Antihyperglycemic activity against streptozotocin-induced diabetic rat assessed as change in plasma glucose at 1 mM/kg, iv
Format: functional

SMILES: O=C(O)[C@H]1O[C@@H](Oc2cc(O)c3c(=O)cc(-c4ccc(O)c(O)c4)oc3c2)[C@H](O)[C@@H](O)[C@@H]1O
- Activity: -25.54%

Source: ChEMBL document CHEMBL1150149, “Bacopaside III, bacopasaponin G, and bacopasides A, B, and C from Bacopa monniera” (2002)
